Test results reported in the supplement of paper PMC10307832.

Tests used:
BI-2536 = compound: CC[C@@H]1C(=O)N(C)c2cnc(Nc3ccc(C(=O)NC4CCN(C)CC4)cc3OC)nc2N1C1CCCC1 [BI-2536]; experiment: relative viability (nuclei count vs DMSO), 5 days (fraction); higher = more cells survive
Outline: (§1)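 Viability was read as treated-well nuclei divided by vehicle-well nuclei, using the median across plates. Lung cancer cell lines in 1536-well plates were kept overnight at 37 °C, pinned with five √10-spaced library-drug doses, and after 5 days were Hoechst-stained, imaged at 4× and counted in MetaXpress. Plates passed only with control CV below 25% and at least one doubling.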

NPK76-II-72-1 = compound: CC1CC(=O)N(C2=CN=C(N=C2N1C3CCCC3)NC4=C(C=C(C=C4)C(=O)NC5CCN(CC5)C)OC)C [NPK76-II-72-1]; experiment: as above
Outline: as §1

Cell Line	relative viability (BI-2536; 0.01 µM)	relative viability (BI-2536; 0.03162 µM)	relative viability (BI-2536; 0.1 µM)	relative viability (BI-2536; 0.3162 µM)	relative viability (BI-2536; 1 µM)	relative viability (NPK76-II-72-1; 0.01 µM)	relative viability (NPK76-II-72-1; 0.03162 µM)	relative viability (NPK76-II-72-1; 0.1 µM)	relative viability (NPK76-II-72-1; 0.3162 µM)	relative viability (NPK76-II-72-1; 1 µM)
201T	0.996	0.987	0.977	0.391	0.255	0.973	1	0.958	0.988	1.03
A549	0.987	0.936	0.628	0.0475	0.0473	0.937	1.05	1.01	1	1.03
A-427	0.996	0.961	0.589	0.137	0.151	0.943	1.07	0.984	0.929	0.977
ABC-1	0.892	0.879	0.212	0.395	0.265	0.759	0.886	0.686	0.955	0.855
BEN	0.948	0.982	0.671	0.386	0.355	0.941	0.928	0.903	0.904	0.996
CAL-12T	0.882	0.849	0.718	0.159	0.198	0.933	1.02	1.01	0.927	1.15
COR-L23	1.09	1.13	0.333	0.136	0.135	0.977	1.06	0.998	1.01	1.01
COR-L 105	0.904	0.909	0.665	0.252	0.343	0.976	0.932	0.977	0.878	0.965
Calu-6	1.02	0.861	0.51	0.117	0.111	0.988	1.05	1.03	0.954	0.996
ChaGo-K-1	0.911	0.965	0.674	0.239	0.197	0.985	0.951	1.04	0.941	0.921
EBC-1	1.04	0.804	0.432	0.224	0.202	0.917	1.02	0.94	0.984	1.07
EKVX	0.966	1.05	0.958	0.254	0.165	0.946	0.938	0.953	0.713	1.21
EMC-BAC-2	0.979	1.03	0.505	0.238	0.246	0.916	0.96	0.981	0.921	1.05
EPLC-272H	0.852	0.707	0.117	0.26	0.0971	0.96	0.951	1.06	0.86	1.07
H3255	0.86	0.872	0.573	0.257	0.29	0.918	0.938	0.995	0.72	1.1
HARA	1.01	1.15	0.823	0.141	0.159	0.922	0.987	0.845	0.924	1.05
HCC-15	1.04	0.925	0.466	0.15	0.146	0.939	1.1	0.988	0.93	1.01
HCC-44	1.01	0.996	0.31	0.155	0.129	1	1.04	0.96	0.969	1.07
HCC-78	0.972	1.04	0.831	0.579	0.247	0.881	0.903	0.931	0.976	1
HCC-366	1.04	1.06	0.677	0.0316	0.0344	0.994	0.999	1	1.09	0.97
HCC-827	1.05	1.03	0.927	0.441	0.284	1.04	1.04	1.07	1.03	1.06
HOP-62	1	1.07	0.775	0.194	0.155	0.935	1.02	0.937	0.875	1.05
IA-LM	0.954	0.912	0.649	0.0924	0.061	0.871	0.836	0.919	0.842	1.14
LC-2-ad	0.954	0.703	0.222	0.211	0.215	1.01	0.996	0.952	1	0.978
LCLC-97TM1	0.969	1.01	0.813	0.129	0.0948	1.07	1.03	0.959	0.752	1.13
LCLC-103H	0.997	1.05	0.961	0.491	0.197	0.984	1.01	0.896	1.05	0.952

Cell Line	relative viability (BI-2536; 0.01 µM)	relative viability (BI-2536; 0.03162 µM)	relative viability (BI-2536; 0.1 µM)	relative viability (BI-2536; 0.3162 µM)	relative viability (BI-2536; 1 µM)	relative viability (NPK76-II-72-1; 0.01 µM)	relative viability (NPK76-II-72-1; 0.03162 µM)	relative viability (NPK76-II-72-1; 0.1 µM)	relative viability (NPK76-II-72-1; 0.3162 µM)	relative viability (NPK76-II-72-1; 1 µM)
LK-2	0.832	0.887	0.623	0.128	0.207	0.961	0.912	0.962	0.832	1.01
LOU-NH91	1.03	0.924	0.824	0.319	0.271	0.952	0.991	0.876	0.793	1.09
LU99A	0.939	0.815	0.449	0.245	0.214	0.882	0.946	0.945	0.875	1.02
LXF-289	1.04	0.977	0.651	0.0735	0.0855	0.954	1.02	0.968	1.04	0.988
NCI-H23	0.926	0.797	0.179	0.141	0.17	0.944	1.06	0.854	0.957	1.11
NCI-H322M	0.99	0.889	0.725	0.497	0.298	0.908	0.997	1.01	0.999	1.01
NCI-H358	0.981	0.744	0.204	0.118	0.136	0.9	0.976	1.01	–	1.05
NCI-H441	0.874	0.503	0.281	0.191	0.224	1.04	1.12	1.03	0.914	1.04
NCI-H460	1.05	1.03	0.552	0.0431	0.0258	0.98	1.04	1.02	0.983	0.992
NCI-H520	0.902	0.737	0.61	0.238	0.225	0.869	1.03	0.991	1.03	0.947
NCI-H522	0.862	0.969	0.639	0.374	0.332	0.922	0.821	0.892	0.929	1.1
NCI-H596	0.963	1.11	0.747	0.402	0.286	0.99	0.97	1.02	1.02	1.01
NCI-H647	0.925	0.874	0.161	0.0642	0.0923	0.886	0.971	1.01	1.03	1.06
NCI-H650	0.819	0.821	0.589	0.198	0.131	0.971	0.946	0.927	0.734	1.01
NCI-H661	1.02	0.95	0.503	0.327	0.334	0.966	1.01	0.97	0.794	1.01
NCI-H727	1.02	0.998	0.764	0.512	0.31	0.882	1.03	0.836	1.02	0.976
NCI-H838	0.99	0.946	0.826	0.164	0.162	0.912	1.03	0.954	0.959	1.02
NCI-H1299	0.968	1.05	0.924	0.291	0.266	1	1.03	1.01	1.01	1.02
NCI-H1355	1.01	0.958	0.638	0.174	0.163	0.933	0.976	0.987	0.92	1.02
NCI-H1395	0.844	0.817	0.435	0.337	0.34	0.893	0.906	0.953	0.955	0.993
NCI-H1437	0.981	0.911	0.804	0.184	0.174	0.981	0.972	0.952	0.964	1.01
NCI-H1563	0.985	1.16	0.924	0.733	0.573	0.949	0.978	1	0.94	0.982
NCI-H1623	0.956	0.91	0.852	0.462	0.28	0.919	0.953	0.901	0.852	0.932
NCI-H1648	0.98	0.826	0.63	0.301	0.267	0.861	0.943	0.537	0.719	0.773
NCI-H1650	0.889	0.801	0.219	0.14	0.143	0.86	0.993	0.929	0.891	0.996
NCI-H1651	0.961	0.947	0.915	0.3	0.109	0.953	0.939	0.925	0.979	1.02
